# Reference: patent US7576085B2, “Imidazopyrazines as cyclin dependent kinase inhibitors” (Schering Corporation, priority 2002, dated 2009)
# What was measured:
# [1] = biological target: T1, CDK2 (cyclin A or cyclin E) (Homo sapiens, UniProt P24941); test: CDK2 in vitro kinase assay (cyclin A or cyclin E dependent), SPA with biotinylated Histone H1 peptide; format: biochemical; conditions: for inhibition at 0.05 µg/mL: compound at 0.05 ug/mL, read-out: % INH @ 0.05 ug/mL; for inhibition at 0.5 µg/mL: compound at 0.5 ug/mL, read-out: % INH @ 0.5 ug/mL; for IC50: CDK2 with cyclin A or cyclin E, 33P-ATP SPA, 1 hour at room temperature
# T1 construct: The expressed protein was approximately 34 kDa in size; made in house; host or cells: SF9 insect cells (recombinant baculovirus, pFASTBAC)
melting point [°C],SMILES,IC50 [1] [nM],further results
–,O=C1CCCN1CCCNc1nc(-c2ccccc2Cl)cn2c(Br)cnc12,–,inhibition at 0.05 µg/mL [1]: 30.7%; inhibition at 0.5 µg/mL [1]: 67.8%
177 to 179,Brc1cnc2c(NCCc3ccncc3)nc(-c3ccccc3)cn12,–,–
–,COCCCNc1nc(-c2ccccc2Cl)cn2c(Br)cnc12,–,inhibition at 0.05 µg/mL [1]: 30.7%; inhibition at 0.5 µg/mL [1]: 71.5%
–,Brc1cnc2c(NCCc3cccnc3)nc(-c3ccccc3)cn12 [drawing 713],4180,–
–,Cc1cnc2c(NCc3ccncc3)nccn12 [drawing 712],22500,–
–,Clc1ccccc1-c1cn2c(Br)cnc2c(NCCCn2cccc2)n1,–,inhibition at 0.05 µg/mL [1]: 42.2%; inhibition at 0.5 µg/mL [1]: 48.8%
–,Clc1ccccc1-c1cn2c(Br)cnc2c(NCc2ccncc2)n1,490,–
145 to 146,Brc1cnc2c(NC3CCCCC3)nc(-c3ccccc3)cn12,–,–
175 to 177,O=C(c1cccc(C(F)(F)F)c1)N1CCC(Nc2nc(-c3ccccc3Cl)cn3c(Br)cnc23)CC1,–,–
–,CC(=O)c1cnc2c(NCc3cccnc3)nc(-c3ccccc3)cn12,4700,–
–,Clc1ccccc1-c1cn2c(Br)cnc2c(NCCCn2ccnc2)n1,–,inhibition at 0.05 µg/mL [1]: 37.5%; inhibition at 0.5 µg/mL [1]: 29.4%
–,c1ccc(-c2cn3c(-c4ccccc4)cnc3c(NCc3cccnc3)n2)cc1,6700,–
–,FC(F)(F)c1ccc(CNc2nc(-c3ccccc3)cn3c(Br)cnc23)cn1,4550,–
143 to 145,Cc1cnc2c(NCc3cccnc3)nccn12,–,–
130 to 132,Cc1cnc2c(NCCc3ccncc3)nccn12,–,–
162 to 164,Clc1ccccc1-c1cn2c(I)cnc2c(NCc2ccncc2)n1,–,–
104 to 105,COCCNc1nccn2c(C)cnc12,–,–
186 to 188,Cc1cnc2c(NC(c3ccccc3)c3ccccc3)nccn12,–,–
152 to 154,Cc1cnc2c(NCc3ccccc3)nccn12,–,–
–,Cc1cnc2c(Nc3ccccc3)nccn12 [drawing 711],15000,–
–,Clc1ccccc1-c1cn2c(Br)cnc2c(NCc2cccnc2)n1,240,inhibition at 0.05 µg/mL [1]: 47.4%; inhibition at 0.5 µg/mL [1]: 88.6%
–,CC(CO)Nc1nc(-c2ccccc2Cl)cn2c(Br)cnc12 (stereo not shown),200,inhibition at 0.05 µg/mL [1]: 63%; inhibition at 0.5 µg/mL [1]: 92.7%
204 to 206,Ic1cnc2c(NCc3cccnc3)nc(-c3ccccc3)cn12,–,–
169 to 170,Brc1cnc2c(Nc3ccccc3)nc(-c3ccccc3)cn12,–,–
–,Ic1cnc2c(NCc3ccncc3)nc(-c3ccccc3)cn12 [drawing 714],530,–
–,Clc1ccccc1-c1cn2c(Cl)cnc2c(NCc2cccnc2)n1 [drawing 718],430,–
–,Clc1ccccc1-c1cn2c(I)cnc2c(NCc2cccnc2)n1,230,–

SMILES,melting point [°C],IC50 [1] [nM],further results
Cc1cnc2c(Nc3ccccc3)nccn12,182 to 184,–,–
Ic1cnc2c(NCc3ccncc3)nc(-c3ccccc3)cn12,139 to 141,–,–
Cc1cnc2c(NCc3ccncc3)nccn12,183 to 185,–,–
Brc1cnc2c(NCCc3cccnc3)nc(-c3ccccc3)cn12,120 to 122,–,–
Clc1ccccc1-c1cn2c(Cl)cnc2c(NCc2cccnc2)n1,127 to 129,–,–
